Assay results taken from patent publication US11033631B2, “Methods of treating CYP2D6 alternative metabolizers” (Nektar Therapeutics, priority 2008, dated 2021).
Structures can show the parent of a compound that is named as a salt. Where two headings read alike, the source gives them in different places.

Assays:
[1] = target: T1, CYP3A4 (Homo sapiens, UniProt P08684); conditions: microsomes
[2] = target: T2, CYP2D6 (Homo sapiens, UniProt P10635)
[3] = target: T1, CYP3A4
[4] = target: T2, CYP2D6; test: biochemical
[5] = target: T1, CYP3A4; test: Microsomal inhibition study, inhibition of midazolam metabolism (Example 1); conditions: read-out: 3A4 Affinity (IC50), Table 2
[6] = target: T2, CYP2D6; test: Microsomal inhibition study, inhibition of bufuralol metabolism (Example 1); conditions: read-out: 2D6 Affinity (IC50), Table 2
[7] = read-out: CYP2D6 Inhibition of dextromethorphan O-demethylation IC50, human liver microsomes 0.1 mg/mL, test compound 0.1-25 μM, 5 minutes
[8] = read-out: CYP3A4 Inhibition of testosterone 6β-hydroxylation IC50, human liver microsomes 0.1 mg/mL, test compound 0.1-25 μM, 5 minutes

T1 sequence (P08684 whole entry): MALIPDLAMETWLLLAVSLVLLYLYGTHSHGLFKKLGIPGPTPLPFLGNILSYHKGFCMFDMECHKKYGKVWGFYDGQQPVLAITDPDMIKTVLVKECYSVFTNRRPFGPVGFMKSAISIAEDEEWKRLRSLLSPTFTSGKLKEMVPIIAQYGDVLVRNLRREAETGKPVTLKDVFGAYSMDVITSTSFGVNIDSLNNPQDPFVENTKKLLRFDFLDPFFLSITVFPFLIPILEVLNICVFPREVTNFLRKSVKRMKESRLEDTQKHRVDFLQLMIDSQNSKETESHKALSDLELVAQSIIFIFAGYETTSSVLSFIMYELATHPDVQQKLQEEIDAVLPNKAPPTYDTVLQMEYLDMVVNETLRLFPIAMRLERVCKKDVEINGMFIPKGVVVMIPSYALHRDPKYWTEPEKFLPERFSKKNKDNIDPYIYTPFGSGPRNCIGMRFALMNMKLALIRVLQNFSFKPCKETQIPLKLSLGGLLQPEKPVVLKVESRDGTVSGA
T2 sequence (P10635 whole entry): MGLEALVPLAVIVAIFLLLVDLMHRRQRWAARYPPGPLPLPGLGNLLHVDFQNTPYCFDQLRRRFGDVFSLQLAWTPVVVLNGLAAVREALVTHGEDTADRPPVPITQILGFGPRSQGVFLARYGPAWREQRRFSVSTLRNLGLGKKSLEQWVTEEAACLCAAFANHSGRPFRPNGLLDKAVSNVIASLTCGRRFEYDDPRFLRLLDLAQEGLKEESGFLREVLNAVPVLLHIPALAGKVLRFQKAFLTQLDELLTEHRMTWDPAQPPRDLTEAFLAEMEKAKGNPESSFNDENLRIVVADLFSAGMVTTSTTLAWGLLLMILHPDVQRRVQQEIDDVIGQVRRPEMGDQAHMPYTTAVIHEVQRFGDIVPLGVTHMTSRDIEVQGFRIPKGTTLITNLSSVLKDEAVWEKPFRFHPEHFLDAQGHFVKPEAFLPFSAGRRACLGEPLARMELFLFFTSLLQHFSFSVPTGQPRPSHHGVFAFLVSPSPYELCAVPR

Row | IC50 [4] [µM] | SMILES | IC50 [1] [µM] | IC50 [2, 7] [µM] | IC50 [3, 8] [µM] | IC50 [5] [µM] | IC50 [6] [µM] | IC50 ([2]; microsomes) [µM] | IC50 ([3]; microsomes) [µM]
1 | – | COCCOCCOCCNCCCN1c2ccccc2CCc2ccccc21 [mPEG3-NH-desipramine] | 17.9 | 1.47 | > 25 | – | – | – | –
2 | 19.5 | N=C(N)N1CCc2ccccc2C1 [Debrisoquine sulfate] | – | – | – | – | – | – | –
3 | – | COCCOCCOCCOCCOCCOCCOCCNCCCN1c2ccccc2CCc2ccccc21 [mPEG7-NH-desipramine] | 9.51 | > 25 | > 25 | – | – | – | –
4 | – | COCCOCCOCCOCCOCCN1CCN(C(c2ccccc2)c2ccc(Cl)cc2)CC1 (stereo not drawn) [PEG-3-HZ, mPEG3-hydroxyzine] | – | 9.7 | – | 17.8 | 10.3 | – | –
5 | – | COCCOCCOCCOCCOCCOCCOCCN1CCN(C(c2ccccc2)c2ccc(Cl)cc2)CC1 (stereo not drawn) [PEG-5-HZ, mPEG5-hydroxyzine] | 7.9 | 11.5 | > 25 | 15.4 | 11.7 | – | –
6 | – | COCCOCCOCCOCCN(C)CCOC(c1ccccc1)c1ccccc1 [mPEG4-N-diphenhydramine] | 13.1 | – | > 25 | – | – | 9.2 | –
7 | – | CC(C)NCC(O)COc1cccc2ccccc12 (stereo not drawn) [Propranolol hydrochloride, reference compound] | > 25 | – | – | – | – | 7.5 | 13.1
8 | – | COCCOCCOCCN(C)CCOC(c1ccccc1)c1ccccc1 [mPEG3-N-diphenhydramine] | 16.4 | – | > 25 | – | – | 2.6 | –
